# Reference: patent US20100291622A1, “NOVEL COMPOUND, PROCESS FOR PRODUCTION THEREOF, AND USE THEREOF” (SCHOOL JURIDICAL PERSON KITASATO INSTITUTE, priority 2007, published 2010)
# Where two headings read alike, the source gives them in different places.
# Experiments:
# [1] = target: T1, undecaprenyl diphosphate synthase derived from Staphylococcus aureus (Staphylococcus aureus, UniProt P60477); assay: Inhibitory effect on undecaprenyl diphosphate synthase (phosphate release, Amplex Red fluorescence); assay type: biochemical
# T1 construct: made in house; host or cells: E. coli BL21 (DE3), T7 promoter, IPTG induction; unpurified cell-free extract (100,000 x g supernatant)
# Procedure: (1) Inhibitory effect on the undecaprenyl diphosphate synthase derived from Staphylococcus aureus
# The test on the activity of undecaprenyl diphosphate synthase was determined following a method of LI et al. (J. Biomol. Screen., vol. 8, pages 712-715, 2003) with partial changes. […]
# The measurement of the activity of undecaprenyl diphosphate synthase was conducted as follows: the FKI-3368 substance was added to a buffer solution B (100 mM Tris-HCl buffer solution (pH 7.5), 50 mM potassium chloride, 0.5 mM magnesium chloride, 0.5 μM farnesyl diphosphate, 3.5 μM isopentenyl diphosphate, […] inorganic pyrophosphatase) so that 90 μL in total volume might be respectively put in each well of a 96-well microplate. […] In order to quantify the released phosphate, 100 μL of a solution C (0.5M Tris-HCl buffer solution (pH 8.8), 1.5 mM inosine, 50 μM Amplex™ Red, 0.02 U nucleoside phosphorylase, 1 U peroxidase, 0.4 U xanthine oxidase) was added to each well and after reaction was performed at room temperature for 40 minutes, fluorescence intensity was measured under the conditions of an excitation wavelength at 544 nm and a measurement wavelength at 590 nm.
# The addition amount of […] and the intensity of fluorescence (F.I.) measured in a reaction liquid without the addition thereof were applied to the following expression and the inhibition % was calculated: […]
# [2] = test system: Aspergillus niger ATCC 9642; assay: MIC by agar dilution; assay type: cell-based; settings: ATCC9642; Aspergillus niger ATCC 9642, 27° C. for 40 hours
# Procedure: (§1) The measurement of the minimal inhibitory concentration (MIC) for various microbes of the FKI-3368-I substance of the present invention was performed by the following method. An ethanol solution of the FKI-3368-I substance was subjected to 2-fold dilution from the concentration of 1,000 μg/ml to prepare 14 stage diluted solutions (1,000 μg/ml, 500 μg/ml, 250 μg/ml, 125 μg/ml, 62.5 μg/ml, 31.3 μg/ml, 15.6 μg/ml, 7.8 μg/ml, 3.9 μg/ml, 2 μg/ml, 1 μg/ml, 0.5 μg/ml, 0.24 μg/ml and 0.12 μg/ml). After 1 ml each of the respective diluted solutions was placed on a round shape dish (90 mm (diameter)×20 mm, produced by IWAKI Co., Ltd.), 9 ml of a culture medium-N for sensitivity disc (for bacteria; produced by Nissui Pharmaceutical Co., Ltd.) or Sabouraud glucose agar (for yeast or mold; produced by Nihon Pharmaceutical Co., Ltd.) was added thereto to form plate media. The test microbes had been incubated in advance in Muller Hinton culture media (for bacteria; produced by Nissui Pharmaceutical Co., Ltd.) or potato dextrose agar media (for yeast or mold; produced by Nissui Pharmaceutical Co., Ltd.). On the very date when the test was performed, the resultant microbe suspensions were diluted with an Muller Hinton culture medium or a potato dextrose culture medium and a platinum loop thereof was streak-smeared on the plate media. These streak-smeared plate media was incubated at 37° C. for 18 hours (for bacteria) or at 27° C. for 40 hours (for yeast and mold) and MIC was determined.
# [3] = test system: Bacillus subtilis ATCC 6633; assay: MIC by agar dilution; assay type: cell-based; settings: ATCC6633; Bacillus subtilis ATCC 6633, 37° C. for 18 hours
# Procedure: as §1
# [4] = test system: Candida albicans ATCC 64550; assay: MIC by agar dilution; assay type: cell-based; settings: ATCC64550, 40 h
# Procedure: as §1
# [5] = test system: Escherichia coli NIHJ; assay: MIC by agar dilution; assay type: cell-based; settings: 37° C. for 18 hours
# Procedure: as §1
# [6] = test system: Klebsiella pneumoniae ATCC 10031; assay: MIC by agar dilution; assay type: cell-based; settings: ATCC10031; Klebsiella pneumoniae ATCC 10031, 37° C. for 18 hours
# Procedure: as §1
# [7] = test system: MRSA K24; assay: MIC by agar dilution; assay type: cell-based; settings: Staphylococcus aureus, 18 h
# Procedure: as §1
# [8] = test system: Micrococcus luteus ATCC 9341; assay: MIC by agar dilution; assay type: cell-based; settings: ATCC9341; Micrococcus luteus ATCC 9341, 37° C. for 18 hours
# Procedure: as §1
# [9] = test system: Mucor racemosus IFO 4581; assay: MIC by agar dilution; assay type: cell-based; settings: IFO4581; Mucor racemosus IFO 4581, 27° C. for 40 hours
# Procedure: as §1
# [10] = test system: Mycobaderium smegmatis ATCC 607; assay: MIC by agar dilution; assay type: cell-based; settings: 18 h
# Procedure: as §1
# [11] = test system: Penicillium chrysogenam IAM 12842; assay: MIC by agar dilution; assay type: cell-based; settings: IAM12842, 40 h
# Procedure: as §1
# [12] = test system: Pseudomonas aeruginosa IFO 3080; assay: MIC by agar dilution; assay type: cell-based; settings: IFO3080; Pseudomonas aeruginosa IFO 3080, 37° C. for 18 hours
# Procedure: as §1
# [13] = test system: Saccharomyces cerevisiae ATCC 9763; assay: MIC by agar dilution; assay type: cell-based; settings: ATCC9763; Saccharomyces cerevisiae ATCC 9763, 27° C. for 40 hours
# Procedure: as §1
# [14] = test system: Serratia marcescens IAM 1021; assay: MIC by agar dilution; assay type: cell-based; settings: IAM1021; Serratia marcescens IAM 1021, 37° C. for 18 hours
# Procedure: as §1
# [15] = test system: Staphylococcus aureus ATCC 6538P; assay: MIC by agar dilution; assay type: cell-based; settings: ATCC6538P, 37° C. for 18 hours
# Procedure: as §1
# [16] = Solubility in solvents; assay type: physicochemical
# [17] = methanol, ethanol, acetonitrile, ethyl acetate, chloroform and dimethylsulfoxide
# T1 sequence (P60477 whole entry): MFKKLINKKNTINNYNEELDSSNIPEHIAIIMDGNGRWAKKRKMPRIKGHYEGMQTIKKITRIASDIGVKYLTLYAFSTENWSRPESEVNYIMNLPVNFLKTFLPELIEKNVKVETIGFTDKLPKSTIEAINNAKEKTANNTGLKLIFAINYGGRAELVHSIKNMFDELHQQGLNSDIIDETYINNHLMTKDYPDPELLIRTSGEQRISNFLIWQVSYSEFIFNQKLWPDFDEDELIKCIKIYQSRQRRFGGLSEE
SMILES,"IC50 ([1]; cell-free extract of transformed E. Coli as enzyme source, 37° C., 20 minutes, read-out: concentration at which the undecaprenyl diphosphate synthase activity was inhibited to 50% (IC50)) [µM]",MIC [2] [µg/mL],MIC [3] [µg/mL],MIC [4] [µg/mL],MIC [5] [µg/mL],MIC [6] [µg/mL],MIC [7] [µg/mL],MIC [8] [µg/mL],MIC [9] [µg/mL],MIC [10] [µg/mL],MIC [11] [µg/mL],MIC [12] [µg/mL],MIC [13] [µg/mL],MIC [14] [µg/mL],MIC [15] [µg/mL],"Solubility in solvents [16, 17]",Solubility in solvents ([16]; water),IC50 [1] [µM]
COc1cc(O)c2c(O)c3c(c4c2c1C1(C4)C(C)=CCCC1(C)C)C(O)C1(O)CC(O)=C(C(N)=O)C(=O)C1(O)C3=O (centres unmarked) [FKI-3368-1],4,12.5,0.4,6.25,> 100,> 100,0.78,1.56,25,> 100,6.25,> 100,12.5,> 100,0.78,Soluble,indissoluble,
COc1cc(O)c2c(O)c3c(c4c2c1C1(C4)C(C)=CCCC1(C)C)C(O)C1(O)CC(O)=C(C(C)=O)C(=O)C1(O)C3=O (centres unmarked) [FKI-3368-2],,,,,,,,,,,,,,,,Soluble,indissoluble,10
